# Data taken from ChEMBL document CHEMBL3885881, “DrugMatrix”.
# Species: Rattus norvegicus
# Assay: DrugMatrix - Regimen: Daily Repeat
# Format: toxicity, organism-based, Sprague-Dawley
# Set-up: regimen Daily Repeat, gender Male, age 6-8 weeks
# Settings: in vivo, po, route oral GAVAGE, vehicle 100 % WATER; for ABSOLUTE BASOPHIL / ABSOLUTE EOSINOPHIL / ABSOLUTE LYMPHOCYTE / ABSOLUTE MONOCYTE / ABSOLUTE SEGMENTED NEUTROPHIL / BASOPHIL / EOSINOPHIL / ERYTHROCYTE COUNT / HEMATOCRIT / HEMOGLOBIN / LEUKOCYTE COUNT / LYMPHOCYTE / MEAN CORPUSCULAR HEMOGLOBIN / MEAN CORPUSCULAR HEMOGLOBIN CONCENTRATION / MEAN CORPUSCULAR VOLUME / MONOCYTE / NEUTROPHIL / NUCLEATED RED BLOOD CELLS / PLATELET COUNT: tissue Blood; for ALANINE AMINOTRANSFERASE / ALBUMIN / ALKALINE PHOSPHATASE / ASPARTATE AMINOTRANSFERASE / BLOOD UREA NITROGEN / CARBON DIOXIDE / CHLORIDE / CHOLESTEROL / CREATINE PHOSPHOKINASE / CREATININE / GLUCOSE / LACTATE DEHYDROGENASE / LIPASE / PHOSPHORUS / POTASSIUM / SODIUM / TOTAL BILIRUBIN / TOTAL PROTEIN / URIC ACID: tissue Plasma
# [1] = 0 mg/kg, 72 h, dose level Control, time 3 day
# [2] = 0 mg/kg, 120 h, dose level Control, time 5 day
# [3] = 120 mg/kg, 72 h, dose level Low, time 3 day
compound,measurement,setting,value
Nc1ccc(S(=O)(=O)Nc2ccnn2-c2ccccc2)cc1 [SULFAPHENAZOLE],ABSOLUTE BASOPHIL,[1],0 CELLS/uL
same,ABSOLUTE EOSINOPHIL,[1],20.17 CELLS/uL
same,ABSOLUTE LYMPHOCYTE,[1],12371.67 CELLS/uL
same,ABSOLUTE MONOCYTE,[1],166 CELLS/uL
same,ABSOLUTE SEGMENTED NEUTROPHIL,[1],1292.17 CELLS/uL
same,BASOPHIL,[1],0%
same,EOSINOPHIL,[1],0.17%
same,ERYTHROCYTE COUNT,[1],5.46 x10E6/uL
same,HEMATOCRIT,[1],34.38%
same,HEMOGLOBIN,[1],13.32 G/DL
same,LEUKOCYTE COUNT,[1],13.85 x10E3/uL
same,LYMPHOCYTE,[1],88.5%
same,MEAN CORPUSCULAR HEMOGLOBIN,[1],24.42 pg
same,MEAN CORPUSCULAR HEMOGLOBIN CONCENTRATION,[1],38.7 G/DL
same,MEAN CORPUSCULAR VOLUME,[1],63.07 fL
same,MONOCYTE,[1],1.17%
same,NEUTROPHIL,[1],10.17%
same,NUCLEATED RED BLOOD CELLS,[1],0.17 /100WBC
same,PLATELET COUNT,[1],1193.5 x10E3/uL
same,ALANINE AMINOTRANSFERASE,[1],54.5 u/L
same,ALBUMIN,[1],4.02 G/DL
same,ALKALINE PHOSPHATASE,[1],346.5 u/L
same,ASPARTATE AMINOTRANSFERASE,[1],103.17 u/L
same,BLOOD UREA NITROGEN,[1],16.5 mg/dL
same,CARBON DIOXIDE,[1],29.83 mmol/L
same,CHLORIDE,[1],99.5 MEQ/L
same,CHOLESTEROL,[1],72.5 mg/dL
same,CREATINE PHOSPHOKINASE,[1],532.5 u/L
same,CREATININE,[1],0.18 mg/dL
same,GLUCOSE,[1],168.5 mg/dL
same,LACTATE DEHYDROGENASE,[1],536.5 u/L
same,LIPASE,[1],11.17 u/L
same,PHOSPHORUS,[1],11.48 mg/dL
same,POTASSIUM,[1],5.95 MEQ/L
same,SODIUM,[1],140.5 MEQ/L
same,TOTAL BILIRUBIN,[1],0.18 mg/dL
same,TOTAL PROTEIN,[1],5.77 G/DL
same,URIC ACID,[1],1.42 mg/dL
same,ABSOLUTE BASOPHIL,[2],0 CELLS/uL
same,ABSOLUTE EOSINOPHIL,[2],22.83 CELLS/uL
same,ABSOLUTE LYMPHOCYTE,[2],12202.83 CELLS/uL
same,ABSOLUTE MONOCYTE,[2],158 CELLS/uL
same,ABSOLUTE SEGMENTED NEUTROPHIL,[2],1283 CELLS/uL
same,BASOPHIL,[2],0%
same,EOSINOPHIL,[2],0.17%
same,ERYTHROCYTE COUNT,[2],5.88 x10E6/uL
same,HEMATOCRIT,[2],36.62%
same,HEMOGLOBIN,[2],14.07 G/DL
same,LEUKOCYTE COUNT,[2],13.67 x10E3/uL
same,LYMPHOCYTE,[2],89.5%
same,MEAN CORPUSCULAR HEMOGLOBIN,[2],23.95 pg
same,MEAN CORPUSCULAR HEMOGLOBIN CONCENTRATION,[2],38.43 G/DL
same,MEAN CORPUSCULAR VOLUME,[2],62.28 fL
same,MONOCYTE,[2],1.17%
same,NEUTROPHIL,[2],9.17%
same,NUCLEATED RED BLOOD CELLS,[2],0.17 /100WBC
same,PLATELET COUNT,[2],1198 x10E3/uL
same,ALANINE AMINOTRANSFERASE,[2],51 u/L
same,ALBUMIN,[2],4.3 G/DL
same,ALKALINE PHOSPHATASE,[2],343 u/L
same,ASPARTATE AMINOTRANSFERASE,[2],89.83 u/L
same,BLOOD UREA NITROGEN,[2],17.67 mg/dL
same,CARBON DIOXIDE,[2],27.17 mmol/L
same,CHLORIDE,[2],98.33 MEQ/L
same,CHOLESTEROL,[2],82.5 mg/dL
same,CREATINE PHOSPHOKINASE,[2],533.33 u/L
same,CREATININE,[2],0.18 mg/dL
same,GLUCOSE,[2],152.67 mg/dL
same,LACTATE DEHYDROGENASE,[2],220.33 u/L
same,LIPASE,[2],11.5 u/L
same,PHOSPHORUS,[2],11.25 mg/dL
same,POTASSIUM,[2],6.29 MEQ/L
same,SODIUM,[2],140.53 MEQ/L
same,TOTAL BILIRUBIN,[2],0.22 mg/dL
same,TOTAL PROTEIN,[2],6.12 G/DL
same,URIC ACID,[2],1.42 mg/dL
same,ABSOLUTE BASOPHIL,[3],0 CELLS/uL
same,ABSOLUTE EOSINOPHIL,[3],0 CELLS/uL
same,ABSOLUTE LYMPHOCYTE,[3],13809.67 CELLS/uL
same,ABSOLUTE MONOCYTE,[3],111 CELLS/uL
same,ABSOLUTE SEGMENTED NEUTROPHIL,[3],1579.33 CELLS/uL
same,BASOPHIL,[3],0%
same,EOSINOPHIL,[3],0%
same,ERYTHROCYTE COUNT,[3],5.26 x10E6/uL
same,HEMATOCRIT,[3],32.3%
same,HEMOGLOBIN,[3],13 G/DL
same,LEUKOCYTE COUNT,[3],15.5 x10E3/uL
same,LYMPHOCYTE,[3],88.67%
same,MEAN CORPUSCULAR HEMOGLOBIN,[3],24.77 pg
same,MEAN CORPUSCULAR HEMOGLOBIN CONCENTRATION,[3],40.33 G/DL
same,MEAN CORPUSCULAR VOLUME,[3],61.43 fL
same,MONOCYTE,[3],0.67%
same,NEUTROPHIL,[3],10.67%
same,NUCLEATED RED BLOOD CELLS,[3],0 /100WBC
same,PLATELET COUNT,[3],1150 x10E3/uL
same,ALANINE AMINOTRANSFERASE,[3],66 u/L
same,ALBUMIN,[3],3.9 G/DL
same,ALKALINE PHOSPHATASE,[3],348.67 u/L
same,ASPARTATE AMINOTRANSFERASE,[3],94.33 u/L
same,BLOOD UREA NITROGEN,[3],14 mg/dL
same,CARBON DIOXIDE,[3],29.33 mmol/L
same,CHLORIDE,[3],97.67 MEQ/L
same,CHOLESTEROL,[3],74.67 mg/dL
same,CREATINE PHOSPHOKINASE,[3],287.67 u/L
same,CREATININE,[3],0.15 mg/dL
same,GLUCOSE,[3],149.33 mg/dL
same,LACTATE DEHYDROGENASE,[3],195.67 u/L
same,LIPASE,[3],10 u/L
same,PHOSPHORUS,[3],11.53 mg/dL
same,POTASSIUM,[3],6.01 MEQ/L
same,SODIUM,[3],140.83 MEQ/L
same,TOTAL BILIRUBIN,[3],0.17 mg/dL
same,TOTAL PROTEIN,[3],5.63 G/DL
same,URIC ACID,[3],1.33 mg/dL
